Data on one compound can be found in patent publication US6743895B1, “Bone stimulating factor” (Osteopharm Inc., priority 1995, dated 2004).

Data set [1] concerns parathyroidectomized rats. Put plainly: Histological evaluation of selected tissues (toxicity experiments). Particulars: miniosmotic pump, about 25 μg per day. It counts as in vivo, rat. The method, then: A miniosmotic pump (Alzet) was loaded with about 1.5 ml of the chemically synthesized peptide having an N-terminal acetyl group (SEQ ID NO:2) in 0.1% acetic acid so as to give a calculated daily delivery of about 25 μg per day. A pump was implanted under the subcutaneous fascia of the dorsal aspect of the left side of the thorax of five rats which had been parathyroldectomized seven days earlier. Five similarly parathyroldectomized rats received similar implants containing only 0.1% acetic acid. Five intact rats were also used as controls.
Histological evaluation of selected tissues of the five rats of each of the groups indicated in Table One were carried out microscopically.

For data set [2], the system named is ovariectomized rats. Nature of the data set: Autopsy after eight week administration to ovariectomized rats. It counts as in vivo, rat. Particulars: 100 μg s.c. every 24 hours for eight weeks. The protocol: Eight weeks after ovariectomization, five ovariectomized rats were injected subcutaneously with 100 μl of a 0.1% acetic acid solution containing 100 μg of the chemically synthesized peptide in which the N-terminal amino group was modified with an acetyl group (SEQ ID NO:2). This was done every 24 hours for eight weeks. On day 54, a tetracycline hydrochloride solution was injected intramuscularly into the right gluteus maximus of each rat so as to give 24 mg per Kg of body weight, as described previously. On day 56, a second dose of tetracycline hydrochloride was injected and the rats were sacrificed on the 57th day.
Post-mortem blood was taken by cardiac puncture and serum frozen until analyzed. An autopsy was performed on each rat.

Residues, ends and D or L forms follow the SMILES beside them.

In the case of `CC[C@H](C)[C@H](NC(=O)CNC(C)=O)C(=O)NCC(=O)N[C@@H](CCCCN)C(=O)N[C@@H](CCCNC(=N)N)C(=O)N[C@H](C(=O)N[C@@H](CC(N)=O)C(=O)N[C@@H](CCC(=O)O)C(=O)N[C@@H](Cc1c[nH]cn1)C(=O)N[C@H](C(=O)N[C@@H](C)C(=O)N[C@@H](CC(=O)O)C(=O)N[C@@H](CS)C(=O)N[C@@H](CCCCN)C(=O)N[C@H](C(=O)N[C@@H](CCCCN)C(=O)N1CCC[C@H]1C(=O)N[C@@H](CC(N)=O)C(=O)N[C@H](C(=O)N[C@@H](CC(C)C)C(=O)N[C@@H](Cc1c[nH]cn1)C(=O)N[C@@H](CCCCN)C(=O)N[C@@H](CCCCN)C(=O)N[C@@H](C)C(=O)N[C@@H](C)C(=O)N[C@@H](CCC(=O)O)C(=O)N[C@H](C(=O)N[C@@H](CC(C)C)C(=O)N[C@@H](CCSC)C(=O)N[C@H](C(=O)N[C@@H](CC(C)C)C(=O)N[C@@H](CC(=O)O)C(=O)N[C@@H](CCC(N)=O)C(=O)N[C@@H](CC(N)=O)C(=O)N[C@@H](CCC(N)=O)C(=O)N1CCC[C@H]1C(=O)O)C(C)C)[C@@H](C)O)[C@@H](C)O)[C@@H](C)CC)[C@@H](C)O)[C@@H](C)O` [SEQ ID NO:2] (Ac-GIGKRTNEHTADCKIKPNTLHKKAAETLMVLDQNQP-OH), in data set [1], the “Histological evaluation of selected tissues” value is “No evidence of toxic lesions”. For the same compound, in data set [2], the Autopsy findings result is recorded as “No obvious pathology was observed”.
